Experimental data published in ChEMBL document CHEMBL5042526, “Design, Synthesis, and Biological Evaluation of Triazolone Derivatives as Potent PPARα/δ Dual Agonists for the Treatment of Nonalcoholic Steatohepatitis” (J Med Chem, 2022).
pEC50: −log10 of the molar value.

Molecular target: T1, Peroxisome proliferator-activated receptor gamma (Homo sapiens, UniProt P37231)
T1 sequence (P37231 whole entry): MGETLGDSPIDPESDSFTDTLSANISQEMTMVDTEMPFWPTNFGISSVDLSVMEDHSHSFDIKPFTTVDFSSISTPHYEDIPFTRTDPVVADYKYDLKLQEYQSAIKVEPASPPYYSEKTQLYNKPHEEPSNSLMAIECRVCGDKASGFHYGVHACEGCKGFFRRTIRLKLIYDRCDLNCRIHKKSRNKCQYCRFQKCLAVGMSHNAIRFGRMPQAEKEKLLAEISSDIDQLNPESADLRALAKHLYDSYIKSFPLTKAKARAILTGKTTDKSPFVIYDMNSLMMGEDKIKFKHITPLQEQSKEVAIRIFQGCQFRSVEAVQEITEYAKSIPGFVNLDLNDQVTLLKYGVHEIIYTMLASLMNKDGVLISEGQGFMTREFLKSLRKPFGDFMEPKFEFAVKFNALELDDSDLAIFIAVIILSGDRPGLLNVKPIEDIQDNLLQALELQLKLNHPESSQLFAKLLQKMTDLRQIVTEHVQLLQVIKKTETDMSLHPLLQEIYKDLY
Assay: Agonist activity at PPARgamma (unknown origin)
Conditions: not given

Row | Structure (SMILES) | pEC50
1 | Cc1cc(Cn2ncn(-c3ccc(OC(F)(F)F)cc3)c2=O)cc(Cl)c1OC(C)(C)C(=O)O | < 5.30

Molecular target: T2, Peroxisome proliferator-activated receptor delta (Homo sapiens, UniProt Q03181)
T2 sequence (Q03181 whole entry): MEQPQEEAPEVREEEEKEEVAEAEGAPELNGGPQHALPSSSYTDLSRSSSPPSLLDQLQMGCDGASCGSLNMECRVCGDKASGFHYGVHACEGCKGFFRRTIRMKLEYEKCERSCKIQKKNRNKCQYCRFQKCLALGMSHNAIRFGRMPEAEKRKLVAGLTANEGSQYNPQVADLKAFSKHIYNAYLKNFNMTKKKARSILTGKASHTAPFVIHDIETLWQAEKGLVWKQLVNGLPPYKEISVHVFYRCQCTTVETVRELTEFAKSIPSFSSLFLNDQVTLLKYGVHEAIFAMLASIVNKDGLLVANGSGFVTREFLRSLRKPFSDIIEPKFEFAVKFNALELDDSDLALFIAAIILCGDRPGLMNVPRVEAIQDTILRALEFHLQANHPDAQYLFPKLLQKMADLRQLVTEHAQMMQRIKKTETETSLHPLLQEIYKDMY
Assay: Agonist activity at PPARdelta (unknown origin)
Conditions: not given

Row | Structure (SMILES) | pEC50
2 | Cc1cc(Cn2ncn(-c3ccc(C(F)(F)F)cc3)c2=O)cc(C)c1OC(C)(C)C(=O)O | 8.77
3 | Cc1cc(Cn2ncn(-c3ccc(C(F)(F)F)cc3)c2=O)cc(C(F)(F)F)c1OC(C)(C)C(=O)O | 8.85
4 | Cc1cc(Cn2ncn(-c3ccc(C(F)(F)F)cc3)c2=O)cc(Cl)c1OC(C)(C)C(=O)O | 7.83
5 | Cc1cc(Cn2ncn(-c3ccc(Br)cc3)c2=O)cc(C)c1OC(C)(C)C(=O)O | 7.67
6 | Cc1cc(Cn2ncn(-c3ccc(OC(F)(F)F)cc3)c2=O)cc(C(F)(F)F)c1OC(C)(C)C(=O)O | 8.25
7 | Cc1cc(Cn2ncn(-c3ccc(OC(F)(F)F)cc3)c2=O)cc(Cl)c1OC(C)(C)C(=O)O | 7.55

Molecular target: T3, Peroxisome proliferator-activated receptor alpha (Homo sapiens) (UniProt Q07869)
T3 sequence (whole entry): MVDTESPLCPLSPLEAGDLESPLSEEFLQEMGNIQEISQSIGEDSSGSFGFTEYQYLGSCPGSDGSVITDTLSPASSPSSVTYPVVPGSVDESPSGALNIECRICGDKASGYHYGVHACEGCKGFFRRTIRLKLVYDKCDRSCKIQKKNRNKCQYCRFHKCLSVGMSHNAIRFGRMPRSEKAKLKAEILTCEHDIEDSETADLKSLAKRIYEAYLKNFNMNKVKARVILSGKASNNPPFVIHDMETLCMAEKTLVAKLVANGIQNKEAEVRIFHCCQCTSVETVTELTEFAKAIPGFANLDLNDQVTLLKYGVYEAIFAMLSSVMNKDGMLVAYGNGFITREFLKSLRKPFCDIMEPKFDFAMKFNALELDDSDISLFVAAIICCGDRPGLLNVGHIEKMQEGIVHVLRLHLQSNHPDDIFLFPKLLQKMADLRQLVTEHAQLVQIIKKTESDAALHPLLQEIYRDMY
Conditions: filed as agonist, dose 10.0 nM
Description: Agonist activity at PPARalpha (unknown origin) assessed as maximal activation at 10 nM relative to GW7647

Row | Structure (SMILES) | Emax
8 | Cc1cc(Cn2ncn(-c3ccc(Cl)cc3)c2=O)cc(C)c1OC(C)(C)C(=O)O | 126%
9 | Cc1cc(Cn2ncn(-c3ccc(C(F)(F)F)cc3)c2=O)cc(Cl)c1OC(C)(C)C(=O)O | 162%
10 | CC(C)(Oc1ccc(Cn2ncn(-c3ccc(C(F)(F)F)cc3)c2=O)cc1Cl)C(=O)O | 150%
11 | COc1ccc(-n2cnn(Cc3cc(C)c(OC(C)(C)C(=O)O)c(C)c3)c2=O)cc1 | 120%
12 | CC(C)(Oc1ccc(Cn2ncn(-c3ccc(OC(F)(F)F)cc3)c2=O)cc1OC(F)(F)F)C(=O)O | 130%
13 | CCc1ccc(-n2cnn(Cc3cc(C)c(OC(C)(C)C(=O)O)c(C)c3)c2=O)cc1 | 98%
14 | CC(C)(Oc1ccc(Cn2ncn(-c3ccc(OC(F)(F)F)cc3)c2=O)cc1Cl)C(=O)O | 111%
15 | Cc1cc(Cn2ncn(-c3ccc(OC(F)(F)F)cc3)c2=O)cc(Cl)c1OC(C)(C)C(=O)O | 110%
16 | Cc1ccc(-n2cnn(Cc3cc(C)c(OC(C)(C)C(=O)O)c(C)c3)c2=O)cc1 | 114%
17 | Cc1cc(Cn2ncn(-c3ccc(OC(F)(F)F)cc3)c2=O)ccc1OC(C)(C)C(=O)O | 141%

Molecular target: T4, Peroxisome proliferator-activated receptor gamma (Homo sapiens) (UniProt P37231)
T4 sequence (whole entry): T1 sequence (P37231 whole entry)
Conditions: filed as agonist, dose 10.0 nM

Row | Structure (SMILES) | Emax
18 | Cc1cc(Cn2ncn(-c3ccc(Cl)cc3)c2=O)cc(C)c1OC(C)(C)C(=O)O | 180%
19 | Cc1cc(Cn2ncn(-c3ccc(C(F)(F)F)cc3)c2=O)cc(Cl)c1OC(C)(C)C(=O)O | 76%
20 | CC(C)(Oc1ccc(Cn2ncn(-c3ccc(C(F)(F)F)cc3)c2=O)cc1Cl)C(=O)O | 99%
21 | COc1ccc(-n2cnn(Cc3cc(C)c(OC(C)(C)C(=O)O)c(C)c3)c2=O)cc1 | 114%
22 | CC(C)(Oc1ccc(Cn2ncn(-c3ccc(OC(F)(F)F)cc3)c2=O)cc1OC(F)(F)F)C(=O)O | 70%
23 | CCc1ccc(-n2cnn(Cc3cc(C)c(OC(C)(C)C(=O)O)c(C)c3)c2=O)cc1 | 149%
24 | CC(C)(Oc1ccc(Cn2ncn(-c3ccc(OC(F)(F)F)cc3)c2=O)cc1Cl)C(=O)O | 67%
25 | Cc1ccc(-n2cnn(Cc3cc(C)c(OC(C)(C)C(=O)O)c(C)c3)c2=O)cc1 | 87%
26 | Cc1cc(Cn2ncn(-c3ccc(OC(F)(F)F)cc3)c2=O)ccc1OC(C)(C)C(=O)O | 110%

Molecular target: T5, Peroxisome proliferator-activated receptor delta (Homo sapiens) (UniProt Q03181)
T5 sequence (whole entry): T2 sequence (Q03181 whole entry)
Conditions: filed as agonist, dose 10.0 nM

Row | Structure (SMILES) | Emax
27 | Cc1cc(Cn2ncn(-c3ccc(Cl)cc3)c2=O)cc(C)c1OC(C)(C)C(=O)O | 114%
28 | Cc1cc(Cn2ncn(-c3ccc(C(F)(F)F)cc3)c2=O)cc(Cl)c1OC(C)(C)C(=O)O | 81%
29 | CC(C)(Oc1ccc(Cn2ncn(-c3ccc(C(F)(F)F)cc3)c2=O)cc1Cl)C(=O)O | 97%
30 | COc1ccc(-n2cnn(Cc3cc(C)c(OC(C)(C)C(=O)O)c(C)c3)c2=O)cc1 | 107%
31 | CC(C)(Oc1ccc(Cn2ncn(-c3ccc(OC(F)(F)F)cc3)c2=O)cc1OC(F)(F)F)C(=O)O | 160%
32 | CCc1ccc(-n2cnn(Cc3cc(C)c(OC(C)(C)C(=O)O)c(C)c3)c2=O)cc1 | 99%
33 | CC(C)(Oc1ccc(Cn2ncn(-c3ccc(OC(F)(F)F)cc3)c2=O)cc1Cl)C(=O)O | 95%
34 | Cc1cc(Cn2ncn(-c3ccc(OC(F)(F)F)cc3)c2=O)cc(Cl)c1OC(C)(C)C(=O)O | 129%
35 | Cc1ccc(-n2cnn(Cc3cc(C)c(OC(C)(C)C(=O)O)c(C)c3)c2=O)cc1 | 87%
36 | Cc1cc(Cn2ncn(-c3ccc(OC(F)(F)F)cc3)c2=O)ccc1OC(C)(C)C(=O)O | 97%

Molecular target: T3, Peroxisome proliferator-activated receptor alpha (Homo sapiens)
Assay: Agonist activity at PPARalpha (unknown origin) assessed as maximal activation at 10 nM relative to control
Conditions: filed as agonist

Row | Structure (SMILES) | Emax
37 | CSc1ccc(C(=O)/C=C/c2cc(C)c(OC(C)(C)C(=O)O)c(C)c2)cc1 [ELAFIBRANOR] | 82%

Tested on: not listed separately
Assay: Intrinsic clearance in human liver microsomes at 1 uM measured upto 60 mins by LC-MS/MS-11 analysis
Format: ADME, Microsome
Conditions: read-out: CLH

Row | Structure (SMILES) | CLint scaled at 1 µM
38 | Cc1cc(Cn2ncn(-c3ccc(C(F)(F)F)cc3)c2=O)cc(C)c1OC(C)(C)C(=O)O | 3.6 mL/min/kg
39 | Cc1cc(Cn2ncn(-c3ccc(C(F)(F)F)cc3)c2=O)cc(C(F)(F)F)c1OC(C)(C)C(=O)O | 2.7 mL/min/kg
40 | Cc1cc(Cn2ncn(-c3ccc(C(F)(F)F)cc3)c2=O)cc(Cl)c1OC(C)(C)C(=O)O | 3.96 mL/min/kg
41 | Cc1cc(Cn2ncn(-c3ccc(Br)cc3)c2=O)cc(C)c1OC(C)(C)C(=O)O | 1.45 mL/min/kg
42 | Cc1cc(Cn2ncn(-c3ccc(OC(F)(F)F)cc3)c2=O)cc(C(F)(F)F)c1OC(C)(C)C(=O)O | 0.09 mL/min/kg
43 | CSc1ccc(C(=O)/C=C/c2cc(C)c(OC(C)(C)C(=O)O)c(C)c2)cc1 [ELAFIBRANOR] | 116 mL/min/kg
44 | CCc1ccc(-n2cnn(Cc3cc(C)c(OC(C)(C)C(=O)O)c(C)c3)c2=O)cc1 | 4.68 mL/min/kg
45 | CC(C)(Oc1c(Cl)cc(Cn2ncn(-c3ccc(C(F)(F)F)cc3)c2=O)cc1Cl)C(=O)O | 10.3 mL/min/kg

Molecular target: T4, Peroxisome proliferator-activated receptor gamma (Homo sapiens)
Assay: Agonist activity at PPARgamma (unknown origin) assessed as maximal activation at 10 nM relative to control
Conditions: filed as agonist

Row | Structure (SMILES) | Emax
46 | CSc1ccc(C(=O)/C=C/c2cc(C)c(OC(C)(C)C(=O)O)c(C)c2)cc1 [ELAFIBRANOR] | 115%

Molecular target: T6, Peroxisome proliferator-activated receptor alpha (Homo sapiens, UniProt Q07869)
T6 sequence (Q07869 whole entry): T3 sequence (whole entry)
Assay: Agonist activity at PPARalpha (unknown origin)
Conditions: not given

Row | Structure (SMILES) | pEC50
47 | Cc1cc(Cn2ncn(-c3ccc(C(C)C)cc3)c2=O)cc(C)c1OC(C)(C)C(=O)O | 8.12
48 | Cc1cc(Cn2ncn(-c3ccc(C(F)(F)F)cc3)c2=O)cc(Cl)c1OC(C)(C)C(=O)O | 8.07
49 | CCc1cc(Cn2ncn(-c3ccc(C(F)(F)F)cc3)c2=O)cc(CC)c1OC(C)(C)C(=O)O | 7.23
50 | CCc1ccc(-n2cnn(Cc3cc(C)c(OC(C)(C)C(=O)O)c(C)c3)c2=O)cc1 | 7.85
51 | Cc1cc(Cn2ncn(-c3ccc(OC(F)(F)F)cc3)c2=O)cc(Cl)c1OC(C)(C)C(=O)O | 8.12

Tested on: not listed separately
Assay: Microsomal stability in human liver microsomes assessed as terminal elimination half life at 1 uM measured upto 60 mins by LC-MS/MS-11 analysis
Format: ADME, Microsome
Conditions: not given

Row | Structure (SMILES) | half-life at 1 µM
52 | Cc1cc(Cn2ncn(-c3ccc(C(F)(F)F)cc3)c2=O)cc(C)c1OC(C)(C)C(=O)O | > 2 h
53 | Cc1cc(Cn2ncn(-c3ccc(C(F)(F)F)cc3)c2=O)cc(C(F)(F)F)c1OC(C)(C)C(=O)O | > 2 h
54 | Cc1cc(Cn2ncn(-c3ccc(C(F)(F)F)cc3)c2=O)cc(Cl)c1OC(C)(C)C(=O)O | > 2 h
55 | Cc1cc(Cn2ncn(-c3ccc(Br)cc3)c2=O)cc(C)c1OC(C)(C)C(=O)O | > 2 h
56 | Cc1cc(Cn2ncn(-c3ccc(OC(F)(F)F)cc3)c2=O)cc(C(F)(F)F)c1OC(C)(C)C(=O)O | > 2 h
57 | CSc1ccc(C(=O)/C=C/c2cc(C)c(OC(C)(C)C(=O)O)c(C)c2)cc1 [ELAFIBRANOR] | > 2 h
58 | CCc1ccc(-n2cnn(Cc3cc(C)c(OC(C)(C)C(=O)O)c(C)c3)c2=O)cc1 | > 2 h
59 | CC(C)(Oc1c(Cl)cc(Cn2ncn(-c3ccc(C(F)(F)F)cc3)c2=O)cc1Cl)C(=O)O | > 2 h

Molecular target: T5, Peroxisome proliferator-activated receptor delta (Homo sapiens)
Assay: Agonist activity at PPARdelta (unknown origin) assessed as maximal activation at 10 nM relative to control
Conditions: filed as agonist

Row | Structure (SMILES) | Emax
60 | CSc1ccc(C(=O)/C=C/c2cc(C)c(OC(C)(C)C(=O)O)c(C)c2)cc1 [ELAFIBRANOR] | 52%
